Results published in the Bradley open melting point set (2014).
Values joined by “and” are separate entries in the source; they are usually repeats but may differ in a detail not shown here. Identical values can stand only once.

melting point	Compound
220 °C	C[C@]12CCC(=O)C=C1CC[C@@H]1[C@@H]2[C@@H](O)C[C@@]2(C)[C@H]1CC[C@]2(O)C(=O)CO [(11beta)-11,17,21-Trihydroxypregn-4-ene-3,20-dione]
93.9 °C	CC(C(=O)O)c1cccc(C(=O)c2ccccc2)c1 (stereo not drawn) [(+/+)-ketoprofen]
131 °C	[O-]/[N+](=N\c1ccccc1)c1ccc(/N=N/c2ccccc2)cc1 [(E)-1-phenyl-2-{4-[(Z)-phenyl-NNO-azoxy]phenyl}diazene]
92 °C	CC(C)(C)OC(=O)N1CCS[C@@H]1C(=O)O [(R)-3-boc-thiazolidine-2-carboxylic acid]
20 °C	[2H]OC([2H])([2H])C([2H])(O[2H])C([2H])([2H])O[2H] [(~2~H_5_)Propane-1,2,3-(~2~H_3_)triol]
-106 °C	[2H]C1([2H])OC([2H])([2H])C([2H])([2H])C1([2H])[2H] [(~2~H_8_)Tetrahydrofuran]
-53 °C	[2H]C([2H])([2H])C([2H])([2H])C([2H])([2H])C([2H])([2H])C([2H])([2H])C([2H])([2H])C([2H])([2H])C([2H])([2H])C([2H])([2H])[2H] [(~2~H_20_)Nonane]
-30 °C	[2H]C([2H])([2H])C([2H])([2H])C([2H])([2H])C([2H])([2H])C([2H])([2H])C([2H])([2H])C([2H])([2H])C([2H])([2H])C([2H])([2H])C([2H])([2H])[2H] [(~2~H_22_)Decane]
260 °C	CC(=O)Nc1nnc(S(N)(=O)=O)s1 [Acetazolamide]
189 °C	CC(=O)c1ccc(S(=O)(=O)NC(=O)NC2CCCCC2)cc1 [Acetohexamide]
255 °C	N=c1nc(O)c2ncn(COCCO)c2[nH]1 [Acyclovir]
186 °C	Nc1ncnc2c1ncn2[C@@H]1O[C@H](COP(=O)(O)O)[C@@H](O)[C@H]1O [Adenosine monophosphate]
205 °C	NCCCCCC(=O)O [Aminocaproic Acid]
108 °C	Cc1c(N(C)C)c(=O)n(-c2ccccc2)n1C [Aminopyrine]
130 °C	CC(C)(C#N)c1cc(Cn2cncn2)cc(C(C)(C)C#N)c1 [Anastrozole]
106 °C	O=C(O)CCCCCCCC(=O)O [Azelaic Acid]
114 °C	CC[C@H]1OC(=O)[C@H](C)[C@@H](O[C@H]2C[C@@](C)(OC)[C@@H](O)[C@H](C)O2)C(C)[C@@H](O[C@@H]2O[C@H](C)C[C@H](N(C)C)[C@H]2O)[C@](C)(O)C[C@@H](C)CN(C)[C@H](C)[C@@H](O)[C@]1(C)O (stereo not given in full) [Azithromycin]
183 °C (2×) and 180 °C	CC1=C(/C=C/C(C)=C/C=C/C(C)=C/C=C/C=C(C)/C=C/C=C(C)/C=C/C2=C(C)CCCC2(C)C)C(C)(C)CCC1 [B-carotene]
95 °C	O=C(C(=O)c1ccccc1)c1ccccc1 [Benzil] [listing 1 of 2 here]
122 °C	O=C(O)c1ccccc1 [Benzoic acid]

melting point	Compound
186 °C	CC(C)(Oc1ccc(CCNC(=O)c2ccc(Cl)cc2)cc1)C(=O)O [Bezafibrate]
52 °C	c1ccc(CCc2ccccc2)cc1 [Bibenzyl]
230 °C	CCCCNc1cc(C(=O)O)cc(S(N)(=O)=O)c1Oc1ccccc1 [Bumetanide]
-49 °C	CCCCN [Butan-1-amine]
160 °C	CC(=O)OCC1=C(C(=O)O)N2C(=O)[C@@H](NC(=O)Cc3cccs3)[C@H]2SC1 [Cefalotin]
-63 °C	ClC(Cl)Cl [Chloroform]
253 °C	c1ccc2c(c1)ccc1c3ccccc3ccc21 [Chrysene] [listing 2 of 2 here]
21 °C	OC1CCCCC1 [Cyclohexanol]
-27 °C	C1=CC=CC=CC=C1 [Cycloocta-1,3,5,7-tetraene]
-97.2 °C	C1=CCC=C1 [Cyclopenta-1,3-diene]
-51 °C	O=C1CCCC1 [Cyclopentanone]
104 °C	OC[C@@H](O)[C@H](O)[C@@H](O)CO [D-Xylitol]
108 °C	OC[C@H]1O[C@](O)(CO)[C@@H](O)[C@@H]1O [D-fructose]
7 °C	CCCCCCCCCCO [Decan-1-ol]
116 °C	O=C(O)c1ccc(-n2nc(-c3ccccc3O)nc2-c2ccccc2O)cc1 [Deferasirox]
130 °C	O=C(O)CCc1ccc(O)cc1 [Desaminotyrosine]
39 °C	CC(C)(C)[SiH](Cl)C(C)(C)C [Di-tert-butyl(chloro)silane]
-10 °C	CCOC(=O)/C=C\C(=O)OCC [Diethyl (2Z)-but-2-enedioate]
216 °C	O=C(O)c1cc(-c2ccc(F)cc2F)ccc1O [Diflunisal]
18.4 °C and 18.5 °C	CS(C)=O [Dimethyl sulfoxide]

The next lines start with the compound.

Compound	melting point
COC1=C(OC)/C(=C\CN=[N+]=[N-])OC1=O [(5E)-5-(2-azidoethylidene)-3,4-dimethoxyfuran-2(5H)-one]	56 °C
Cl/C=C/Cl [(E)-1,2-Dichloroethene]	-50 °C
O=C(O)/C(=C/c1ccccc1[N+](=O)[O-])c1ccccc1 [(E)-2-phenyl-3-(2-nitrophenyl)propenoic acid]	198 °C
c1ccc(/N=N/c2ccccc2)cc1 [(E)-Diphenyldiazene]	68.5 °C
CC(C)(C)OC(=O)N1CCS[C@H]1C(=O)O [(S)-3-boc-thiazolidine-2-carboxylic acid]	92 °C
CN1CCC[C@H]1c1cccnc1 [(S)-nicotine]	-79 °C
[2H]OC(=O)C([2H])([2H])[2H] [(~2~H_4_)Acetic acid]	15.5 °C
[2H]C([2H])([2H])[2H] [(~2~H_4_)Methane]	-183 °C
[2H]OC([2H])([2H])C([2H])([2H])[2H] [(~2~H_5_)Ethan(~2~H)ol]	-114 °C
[2H]C([2H])([2H])C(=O)C([2H])([2H])[2H] [(~2~H_6_)Propan-2-one]	-93 °C
[2H]c1c([2H])c([2H])c2c(c1[2H])c([2H])c([2H])c1c3c([2H])c([2H])c([2H])c([2H])c3c([2H])c([2H])c21 [(~2~H_12_)Chrysene]	255 °C
c1cc2c3c(cccc3c1)CC2 [Acenaphthene]	95 °C
CC(=O)O [Acetic acid]	16.7 °C
CC(=O)Cl [Acetyl chloride]	-112 °C
Cc1c(C)c(/C=CC(C)=CC=CC(/C)=CC(=O)O)c(C)cc1OC [Acitretin]	229 °C
O=C1[C@H]2C[C@@H]3C[C@@H](C[C@H]1C3)C2 [Adamantanone]	270 °C
C=CCOc1ccc(CC(=O)O)cc1Cl [Alclofenac]	92 °C
Nc1ccccc1 [Aniline]	-6 °C
COc1ccc(CCN2CCC(Nc3nc4ccccc4n3Cc3ccc(F)cc3)CC2)cc1 [Astemizole]	149 °C
O=C(O)\C=C(/C)C [B,B-dimethylacrylic acid]	69.5 °C
CCC1(CC)C(=O)NC(=O)NC1=O [Barbital]	190 °C
O=C1CC(=O)NC(=O)N1 [Barbituric acid]	248 °C
C[C@H]1C[C@H]2[C@@H]3CCC4=CC(=O)C=C[C@]4(C)[C@@]3(Cl)[C@@H](O)C[C@]2(C)[C@@]1(O)C(=O)CO [Beclomethasone]	118 °C
O=S(=O)(Cl)c1ccccc1 [Benzenesulfonyl chloride]	15 °C
O=C(C(=O)c1ccccc1)c1ccccc1 [Benzil] [listing 2 of 2 here]	94.5 °C
O=C(O)c1ccccc1 [Benzoic Acid]	122 °C
BrC(Br)Br [Bromoform]	9 °C
C=CCC1(CC(C)C)C(=O)NC(=O)NC1=O [Butalbital]	138 °C

Compound	melting point
CC(O)C(C)O (stereo not given) [Butane-2,3-diol]	25 °C
C=C(C)C(=O)OCCCC [Butyl methacrylate]	-50 °C
CCCCN [Butylamine]	-49 °C
c1ccc2c(c1)ccc1c3ccccc3ccc21 [Chrysene] [listing 1 of 2 here]	255 °C
Clc1cccc(Cl)c1N=C1NCCN1 [Clonidine]	130 °C
Clc1ccccc1C(c1ccccc1)(c1ccccc1)n1ccnc1 [Clotrimazole]	148 °C
CC(=O)C=C(C)[O][Co]([O]C(C)=CC(C)=O)[O]/C(C)=C\C(C)=O [Cobalt(3+) tris[(2Z)-4-oxopent-2-en-2-olate]]	212 °C
COc1cc2c(c(OC)c1OC)-c1ccc(OC)c(=O)cc1[C@@H](NC(C)=O)CC2 [Colchicine]	156 °C
N#CCC(=O)c1ccccc1 [Cyanoacetophenone]	83 °C
C1=CCCCC1 [Cyclohexene]	-104 °C
Nc1ccn([C@@H]2O[C@H](CO)[C@@H](O)[C@@H]2O)c(=O)n1 [Cytarabine]	212 °C
OC[C@@H](O)[C@@H](O)[C@H](O)[C@H](O)CO [D-Mannitol]	167 °C
O=C[C@H](O)[C@H](O)[C@H](O)CO [D-Ribose]	82 °C
C[C@@H](O)[C@H](O)[C@H](O)[C@@H](O)C=O [D-fucose]	145 °C
OC[C@@H](O)[C@@H](O)[C@H](O)[C@@H](O)CO [D-sorbitol]	99 °C
CCCCCCCCCC [Decane]	-30 °C and -29.7 °C
NC(Cc1cc(I)c(Oc2cc(I)c(O)c(I)c2)c(I)c1)C(=O)O (stereo not given) [Dextrothyroxine]	236 °C
c1ccc2c(c1)oc1ccccc12 [Dibenzofuran]	82 °C
CCCCOC(=O)c1ccccc1C(=O)OCCCC [Dibutyl phthalate]	-35 °C
O=C(O)Cc1ccccc1Nc1c(Cl)cccc1Cl [Diclofenac]	157 °C
C1=CC2C(C1)[C@@H]1C=C[C@H]2C1 (stereo not given in full) [Dicyclopentadiene]	32.5 °C
O=c1nc[nH]c2c1ncn2[C@H]1CC[C@@H](CO)O1 [Didanosine]	162 °C
CCOC(=O)c1ccccc1C(=O)OCC [Diethyl phthalate]	-3 °C
COc1ccc([C@@H]2Sc3ccccc3N(CCN(C)C)C(=O)[C@@H]2OC(C)=O)cc1 [Diltiazem]	231 °C
COCOC [Dimethoxymethane]	-105 °C
COC(=O)/C=C/C(=O)OC [Dimethyl (2E)-but-2-enedioate]	104 °C
COC(=O)c1ccccc1C(=O)OC [Dimethyl phthalate]	2 °C
